Measured values published in patent US10344060B2 (priority 2013, dated 2019).
“Also recorded” adds a separate entry of the source. Where two headings read alike, the source gives them in different places.

Assays:
Nav1.7 = Nav1.7 (Rattus norvegicus, UniProt O08562); details: read-out: TTX IC50; cited from earlier work
Nav1.8 = Nav1.8 (Rattus norvegicus, UniProt Q62968); details: read-out: TTX IC50; cited from earlier work
Nav1.4 = Nav1.4 (Rattus norvegicus, UniProt P15390); details: read-out: TTX IC50; cited from earlier work
Nav1.6 = Nav1.6 (Rattus norvegicus, UniProt O88420); details: read-out: TTX IC50; cited from earlier work
[1] = test system: mouse saphenous nerve C-fibers
Nav1.3 = Nav1.3 (Rattus norvegicus, UniProt P08104); details: read-out: TTX IC50; cited from earlier work
hNav1.6 = hNav1.6 (Homo sapiens, UniProt Q9UQD0); assay: cell-based; assay type: cell-based
Chain of hNav1.6 (Q9UQD0 whole entry): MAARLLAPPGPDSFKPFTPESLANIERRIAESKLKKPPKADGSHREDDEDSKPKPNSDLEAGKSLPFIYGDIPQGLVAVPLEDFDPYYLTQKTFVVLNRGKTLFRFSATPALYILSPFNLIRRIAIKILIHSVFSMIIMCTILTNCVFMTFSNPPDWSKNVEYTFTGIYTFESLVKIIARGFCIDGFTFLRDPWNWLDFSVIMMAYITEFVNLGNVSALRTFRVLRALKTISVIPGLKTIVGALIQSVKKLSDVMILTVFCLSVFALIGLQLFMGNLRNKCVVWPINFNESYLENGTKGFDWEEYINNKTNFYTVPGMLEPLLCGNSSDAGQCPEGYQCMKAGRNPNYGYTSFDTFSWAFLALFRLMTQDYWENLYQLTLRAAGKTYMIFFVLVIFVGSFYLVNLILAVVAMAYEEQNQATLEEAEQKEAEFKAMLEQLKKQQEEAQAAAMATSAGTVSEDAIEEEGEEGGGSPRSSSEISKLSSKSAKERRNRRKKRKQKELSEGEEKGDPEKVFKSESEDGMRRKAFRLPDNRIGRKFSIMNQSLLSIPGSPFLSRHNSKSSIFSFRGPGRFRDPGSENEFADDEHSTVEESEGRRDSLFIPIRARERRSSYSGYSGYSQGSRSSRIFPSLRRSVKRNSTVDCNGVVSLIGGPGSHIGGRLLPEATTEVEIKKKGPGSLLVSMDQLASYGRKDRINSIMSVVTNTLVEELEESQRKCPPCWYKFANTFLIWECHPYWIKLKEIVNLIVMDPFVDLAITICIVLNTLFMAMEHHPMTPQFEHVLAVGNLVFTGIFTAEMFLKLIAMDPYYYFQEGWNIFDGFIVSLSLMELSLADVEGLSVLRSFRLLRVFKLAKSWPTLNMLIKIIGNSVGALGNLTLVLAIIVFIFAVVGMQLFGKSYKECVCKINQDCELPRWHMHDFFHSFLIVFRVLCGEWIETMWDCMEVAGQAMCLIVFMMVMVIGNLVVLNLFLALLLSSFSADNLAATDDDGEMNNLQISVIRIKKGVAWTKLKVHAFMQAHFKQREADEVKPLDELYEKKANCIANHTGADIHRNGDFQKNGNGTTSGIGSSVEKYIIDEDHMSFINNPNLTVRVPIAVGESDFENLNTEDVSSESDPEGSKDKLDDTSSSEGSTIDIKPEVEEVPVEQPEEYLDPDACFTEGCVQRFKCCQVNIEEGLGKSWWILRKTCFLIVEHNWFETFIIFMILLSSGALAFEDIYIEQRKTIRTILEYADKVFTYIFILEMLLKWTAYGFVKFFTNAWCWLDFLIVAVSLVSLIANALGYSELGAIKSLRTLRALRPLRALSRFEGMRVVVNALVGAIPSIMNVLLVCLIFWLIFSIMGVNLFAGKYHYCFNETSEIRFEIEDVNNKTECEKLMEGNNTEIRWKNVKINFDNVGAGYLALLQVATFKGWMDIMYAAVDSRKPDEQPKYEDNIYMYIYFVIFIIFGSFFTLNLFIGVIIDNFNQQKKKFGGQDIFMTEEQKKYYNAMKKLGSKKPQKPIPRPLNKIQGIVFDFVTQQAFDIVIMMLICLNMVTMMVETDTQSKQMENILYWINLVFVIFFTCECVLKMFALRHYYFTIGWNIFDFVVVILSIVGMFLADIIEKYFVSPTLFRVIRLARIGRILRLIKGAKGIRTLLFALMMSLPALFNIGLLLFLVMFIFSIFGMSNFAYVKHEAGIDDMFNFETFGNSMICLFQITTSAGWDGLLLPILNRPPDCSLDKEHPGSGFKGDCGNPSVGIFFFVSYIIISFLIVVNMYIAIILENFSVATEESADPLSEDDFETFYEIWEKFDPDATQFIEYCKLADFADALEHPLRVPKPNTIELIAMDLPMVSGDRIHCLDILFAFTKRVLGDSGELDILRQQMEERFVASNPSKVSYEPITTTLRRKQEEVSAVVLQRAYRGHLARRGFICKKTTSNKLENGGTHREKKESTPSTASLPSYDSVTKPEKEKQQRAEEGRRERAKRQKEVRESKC

in vivo [2] = details: male, Sprague-Dawley, rat, sc, 5 mg/kg
[3] = test system: TTX-sensitive Nav channels in mouse DRG neuron
male CD-1 mice [4] = test system: male CD-1 mice
male Sprague-Dawley rats [5] = details: 5.0 mg/kg s.c.; 2 h post peptide injection
male CD-1 mice [6] = details: for terminal exposure (peptide plasma concentration): 2 h post peptide injection
hNav1.7 [7] = target: T1, hNav1.7 (Homo sapiens, UniProt Q15858); assay: cell-based; details: ratio of IonWorks Quattro IC50 values, Nav1.4 over Nav1.7
T1 sequence (Q15858 whole entry): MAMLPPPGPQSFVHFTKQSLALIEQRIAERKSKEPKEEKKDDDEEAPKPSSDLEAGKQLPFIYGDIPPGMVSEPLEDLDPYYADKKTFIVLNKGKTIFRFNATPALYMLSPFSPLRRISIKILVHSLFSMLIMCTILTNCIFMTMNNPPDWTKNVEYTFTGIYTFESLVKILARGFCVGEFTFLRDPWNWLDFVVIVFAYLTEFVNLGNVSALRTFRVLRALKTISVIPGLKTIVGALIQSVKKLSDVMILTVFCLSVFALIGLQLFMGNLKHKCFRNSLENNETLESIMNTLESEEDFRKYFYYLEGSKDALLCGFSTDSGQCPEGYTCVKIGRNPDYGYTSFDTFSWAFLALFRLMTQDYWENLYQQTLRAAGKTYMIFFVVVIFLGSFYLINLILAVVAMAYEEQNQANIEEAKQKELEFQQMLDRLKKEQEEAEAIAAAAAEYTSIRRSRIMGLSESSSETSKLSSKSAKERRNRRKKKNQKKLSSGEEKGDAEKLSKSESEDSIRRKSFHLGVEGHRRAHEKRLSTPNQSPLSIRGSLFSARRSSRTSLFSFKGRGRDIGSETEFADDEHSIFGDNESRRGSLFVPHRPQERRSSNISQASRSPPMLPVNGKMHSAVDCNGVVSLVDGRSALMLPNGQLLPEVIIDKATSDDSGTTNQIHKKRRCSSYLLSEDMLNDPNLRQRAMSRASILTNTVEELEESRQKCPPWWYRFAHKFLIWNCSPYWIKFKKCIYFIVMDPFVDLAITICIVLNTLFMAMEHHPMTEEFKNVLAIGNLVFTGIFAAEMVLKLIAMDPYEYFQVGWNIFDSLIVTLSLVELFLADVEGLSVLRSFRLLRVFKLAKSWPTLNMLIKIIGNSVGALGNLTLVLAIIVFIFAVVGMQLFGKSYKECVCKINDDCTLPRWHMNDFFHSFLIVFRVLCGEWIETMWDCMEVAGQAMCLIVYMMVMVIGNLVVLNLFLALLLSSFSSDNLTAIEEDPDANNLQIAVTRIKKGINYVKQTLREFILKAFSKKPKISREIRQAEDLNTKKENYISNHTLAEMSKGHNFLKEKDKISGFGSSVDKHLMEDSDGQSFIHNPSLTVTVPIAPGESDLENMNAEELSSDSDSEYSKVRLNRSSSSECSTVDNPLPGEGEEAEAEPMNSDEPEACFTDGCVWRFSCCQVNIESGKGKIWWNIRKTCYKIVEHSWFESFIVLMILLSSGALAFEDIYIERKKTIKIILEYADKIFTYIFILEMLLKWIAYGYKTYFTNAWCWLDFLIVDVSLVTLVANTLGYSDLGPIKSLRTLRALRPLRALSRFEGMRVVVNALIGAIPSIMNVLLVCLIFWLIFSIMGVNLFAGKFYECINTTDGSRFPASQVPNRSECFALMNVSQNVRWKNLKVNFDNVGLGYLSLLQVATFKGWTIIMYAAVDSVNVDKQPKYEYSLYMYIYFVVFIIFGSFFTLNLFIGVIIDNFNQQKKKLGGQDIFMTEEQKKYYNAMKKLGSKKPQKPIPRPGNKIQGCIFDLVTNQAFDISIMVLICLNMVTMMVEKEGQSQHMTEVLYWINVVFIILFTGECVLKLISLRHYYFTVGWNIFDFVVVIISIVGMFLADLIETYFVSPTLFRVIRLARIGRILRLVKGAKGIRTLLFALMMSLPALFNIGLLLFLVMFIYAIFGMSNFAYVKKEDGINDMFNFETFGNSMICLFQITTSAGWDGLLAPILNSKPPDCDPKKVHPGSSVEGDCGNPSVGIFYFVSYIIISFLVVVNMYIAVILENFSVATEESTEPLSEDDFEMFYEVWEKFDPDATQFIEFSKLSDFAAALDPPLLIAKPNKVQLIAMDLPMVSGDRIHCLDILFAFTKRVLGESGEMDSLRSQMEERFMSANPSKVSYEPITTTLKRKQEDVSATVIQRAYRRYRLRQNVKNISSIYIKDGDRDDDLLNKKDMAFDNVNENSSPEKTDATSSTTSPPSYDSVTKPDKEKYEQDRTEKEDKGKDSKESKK

hNav1.7 [8] = target: T1, hNav1.7; assay: cell-based; assay type: cell-based; details: Table 15; read-out: PX hNav1.7 Tonic IC50
[9] = cyno plasma, 37° C., incubation 0 hr (normalisation point)
male CD-1 mice [10] = details: 5.0 mg/kg s.c.
[11] = mouse plasma, 37° C., incubation 0 hr (normalisation point)
male Sprague-Dawley rats [12] = details: 5.0 mg/kg s.c.
[13] = 1 mg/kg s.c.
[14] = test system: TTX-sensitive Nav channels in Sprague Dawley rat DRG neuron
hNav1.7 [15] = target: T1, hNav1.7; assay: cell-based; assay type: cell-based
in vivo [16] = details: male, CD-1, mouse, sc
[17] = human plasma, 37° C., incubation 0 hr (normalisation point)
hNav1.4 = hNav1.4 (Homo sapiens, UniProt P35499); assay: cell-based; assay type: cell-based; details: PX
[18] = 0.1, 0.3, and 1.0 mg/kg s.c., 1-hour pre-treatment

Which IC50 (Nav1.7) does the source give for NC1=N[C@H](O)[C@H]2[C@H]3O[C@]4(O)O[C@@H]([C@@H](O)[C@@]2(N1)[C@@H]4O)[C@]3(O)CO [TTX, tetrodotoxin] here?
Its IC50 is 4 nM.

What about the IC50 (Nav1.8) of the same compound?
Its IC50 is greater than 50 µM.

What about the IC50 (Nav1.4) of the same compound?
The IC50 was 5 nM.

And the IC50 (Nav1.6)?
The IC50 was 1 nM.

What about the “action potential firing, in words” value [1] of the same compound?
Its value is “completely blocked action potential firing”.

And the IC50 (Nav1.3)?
Its IC50 is 2 to 15 nM.

Which “selectivity for Nav1.7 over Nav1.6” value (hNav1.6; PatchXpress) does the source give for CC[C@H](C)[C@H](NC(=O)[C@H](CCCCN)NC(=O)[C@H](CCCNC(=N)N)NC(=O)[C@@H]1CSSC[C@@H]2NC(=O)[C@H](C)NC(=O)[C@H](CCCNC(=N)N)NC(=O)[C@H](CCCCN)NC(=O)[C@H](CO)NC(=O)[C@H](CC(=O)O)NC(=O)[C@@H]3CSSC[C@H](NC(=O)[C@H](CCC(=O)O)NC(=O)[C@H](CC(C)C)NC(=O)CNC(=O)[C@H](CCC(=O)O)NC(=O)[C@H](CSSC[C@H](NC(=O)[C@@H](N)Cc4ccc(O)cc4)C(=O)N[C@@H](CCC(N)=O)C(=O)N[C@@H](CCCCN)C(=O)N[C@@H](Cc4c[nH]c5ccccc45)C(=O)N[C@@H](CCSC)C(=O)N[C@@H](Cc4c[nH]c5ccccc45)C(=O)N[C@@H]([C@@H](C)O)C(=O)N3)NC2=O)C(=O)N[C@@H](CCCCN)C(=O)N[C@@H](CC(C)C)C(=O)N[C@@H](Cc2c[nH]c3ccccc23)C(=O)N1)C(=O)N[C@@H](Cc1c[nH]c2ccccc12)C(N)=O [compound 112] here?
The value was 454 fold.

And the Nav1.6/Nav1.7 (hNav1.6; Table 15, ratio of PX tonic IC50 values)?
Its Nav1.6/Nav1.7 is 454.

What about the IC50 (hNav1.6; Table 15, read-out: PX hNav1.6 Tonic IC50) of the same compound?
The IC50 was 720 nM.

And the level at time molar at 2 h (in vivo [2])?
Its level at time molar at 2 h is 994 ± 184 nM.

What about the 1.x/1.7 [3] of the same compound?
Its 1.x/1.7 is 1213.

And the “loss in potency in mouse DRG neurons relative to the human clone of Nav1.7” value ([3]; TTX-sensitive current)?
Its value is roughly 1000 fold.

And the 1.x/1.7 ([3]; partially inactivated, mTTX-S (fresh DRG) / hNav1.7)?
The 1.x/1.7 was 917.

What about the terminal plasma exposure (male CD-1 mice [4]; 0.1 mg/kg s.c., 45 min post-formalin injection, mean±SEM) of the same compound?
The terminal plasma exposure was 0.0278 ± 0.0105 µM.

What about the terminal plasma exposure (male CD-1 mice [4]; 0.3 mg/kg s.c., 45 min post-formalin injection) of the same compound?
The terminal plasma exposure was 0.121 ± 0.0411 µM.

And the “pain response relative to the vehicle, first phase” value (male CD-1 mice [4]; 1 mg/kg s.c., 1-hour pre-treatment)?
The value was “may have slightly increased the pain response”.

And the terminal plasma exposure (male CD-1 mice [4]; 1.0 mg/kg s.c., 45 min post-formalin injection)?
The terminal plasma exposure was 0.412 ± 0.0858 µM.

And the “plasma concentration over the IC50 for blocking TTX-S current in mouse DRG neurons (WCPC)” value (male CD-1 mice [4]; 5.0 mg/kg s.c.)?
Its value is “about 10 fold”.

And the terminal plasma exposure (male CD-1 mice [4]; 5.0 mg/kg s.c., 45 min post formalin injection)?
Its terminal plasma exposure is 2.63 ± 0.777 µM.

And the “terminal exposure (peptide plasma concentration)” value (shortened to “terminal exposure”) (male Sprague-Dawley rats [5])?
Its value is 0.994 ± 0.184 µM.

What about the “terminal exposure” value (male CD-1 mice [6]; 0.1 mg/kg s.c.) of the same compound?
Its value is 0.0248 ± 0.00668 µM.

And the “terminal exposure” value (male CD-1 mice [6]; 0.3 mg/kg s.c.)?
Its value is 0.121 ± 0.0296 µM.

What about the “terminal exposure” value (male CD-1 mice [6]; 1.0 mg/kg s.c.) of the same compound?
The value was 0.419 ± 0.226 µM.

What about the “terminal exposure” value (male CD-1 mice [6]; 5.0 mg/kg s.c.) of the same compound?
Its value is 4.73 ± 0.584 µM.

And the “total basic movement component of locomotor activity” value (male CD-1 mice [6]; [18])?
The value was “No doses of peptide significantly decreased exploratory behavior”.

What about the “total rearing component of locomotor activity” value (male CD-1 mice [6]; [18]) of the same compound?
Its value is “No doses of peptide significantly decreased exploratory behavior”.

What about the “total basic movement, total fine movement, total rearing, or total time rearing” value (male CD-1 mice [6]; 0.1, 0.3, or 1.0 mg/kg s.c., 1-hour pre-treatment) of the same compound?
Its value is “no effect”.

And the Nav1.4/Nav1.7 (hNav1.7 [7])?
The Nav1.4/Nav1.7 was 178.

What about the IC50 (hNav1.7 [8]) of the same compound?
Its IC50 is 1.59 nM.

And the “% Peptide Remaining” value [9]?
The value was 100%.

What about the terminal plasma exposure (male CD-1 mice [10]; 2 h post peptide injection) of the same compound?
The terminal plasma exposure was 1.75 ± 0.536 µM.

And the “thermal latency compared to vehicle (PBS)” value (male CD-1 mice [10]; CFA thermal hyperalgesia, male CD-1 mice)?
Its value is “no effect”.

What about the “% Peptide Remaining” value [11] of the same compound?
Its value is 100%.

What about the “effect in the first or acute phase (0-5 min)” value (male Sprague-Dawley rats [12]; 1-hour pre-treatment, male Sprague-Dawley rats) of the same compound?
The value was “no effect”.

And the terminal plasma exposure (male Sprague-Dawley rats [12]; 45 min post-formalin injection)?
The terminal plasma exposure was 1.18 ± 0.156 µM.

And the “plasma concentration over the in vitro hNav1.7 IC50 (PX)” value ([13]; CD-1 mice, for 3 h)?
Its value is 26 fold.

What about the tolerability ([13]; mice) of the same compound?
Its tolerability is “tolerated”.

And the IC50 [14]?
The IC50 was 261 nM.

What about the 1.x/1.7 ([14]; partially inactivated, rTTX-S / hNav1.7) of the same compound?
The 1.x/1.7 was 1135.

What about the “block of hNav1.7 current” value (hNav1.7 [15]; 100 nM) of the same compound?
Its value is “approximately 80%”.

What about the “block of hNav1.7 current, in words” value (hNav1.7 [15]; 100 nM) of the same compound?
The value was “did not completely block Nav1.7 current; also recorded: only partial inhibition”.

And the 1.x/1.7 (hNav1.7 [15]; partially inactivated, hNav1.7 / hNav1.7)?
Its 1.x/1.7 is 1.

What about the level at time molar at 2 h (in vivo [16]; 0.1 mg/kg) of the same compound?
Its level at time molar at 2 h is 24.8 ± 6.68 nM.

And the level at time molar at 2 h (in vivo [16]; 0.3 mg/kg)?
Its level at time molar at 2 h is 121 ± 29.6 nM.

And the level at time molar at 2 h (in vivo [16]; 1 mg/kg)?
Its level at time molar at 2 h is 419 ± 226 nM.

What about the “% Peptide Remaining” value [17] of the same compound?
Its value is 100%.

And the “selectivity against hNav1.4 relative to hNav1.7” value (hNav1.4)?
The value was greater than 1000 fold.
